The text below walks through data of patent EP1142881A1, “POLY(ADP-RIBOSE) POLYMERASE INHIBITORS CONSISTING OF PYRIMIDINE DERIVATIVES” (Meiji Seika Kaisha, Ltd., priority 1999, dated 2000).

T1 sequence (P27008 whole entry): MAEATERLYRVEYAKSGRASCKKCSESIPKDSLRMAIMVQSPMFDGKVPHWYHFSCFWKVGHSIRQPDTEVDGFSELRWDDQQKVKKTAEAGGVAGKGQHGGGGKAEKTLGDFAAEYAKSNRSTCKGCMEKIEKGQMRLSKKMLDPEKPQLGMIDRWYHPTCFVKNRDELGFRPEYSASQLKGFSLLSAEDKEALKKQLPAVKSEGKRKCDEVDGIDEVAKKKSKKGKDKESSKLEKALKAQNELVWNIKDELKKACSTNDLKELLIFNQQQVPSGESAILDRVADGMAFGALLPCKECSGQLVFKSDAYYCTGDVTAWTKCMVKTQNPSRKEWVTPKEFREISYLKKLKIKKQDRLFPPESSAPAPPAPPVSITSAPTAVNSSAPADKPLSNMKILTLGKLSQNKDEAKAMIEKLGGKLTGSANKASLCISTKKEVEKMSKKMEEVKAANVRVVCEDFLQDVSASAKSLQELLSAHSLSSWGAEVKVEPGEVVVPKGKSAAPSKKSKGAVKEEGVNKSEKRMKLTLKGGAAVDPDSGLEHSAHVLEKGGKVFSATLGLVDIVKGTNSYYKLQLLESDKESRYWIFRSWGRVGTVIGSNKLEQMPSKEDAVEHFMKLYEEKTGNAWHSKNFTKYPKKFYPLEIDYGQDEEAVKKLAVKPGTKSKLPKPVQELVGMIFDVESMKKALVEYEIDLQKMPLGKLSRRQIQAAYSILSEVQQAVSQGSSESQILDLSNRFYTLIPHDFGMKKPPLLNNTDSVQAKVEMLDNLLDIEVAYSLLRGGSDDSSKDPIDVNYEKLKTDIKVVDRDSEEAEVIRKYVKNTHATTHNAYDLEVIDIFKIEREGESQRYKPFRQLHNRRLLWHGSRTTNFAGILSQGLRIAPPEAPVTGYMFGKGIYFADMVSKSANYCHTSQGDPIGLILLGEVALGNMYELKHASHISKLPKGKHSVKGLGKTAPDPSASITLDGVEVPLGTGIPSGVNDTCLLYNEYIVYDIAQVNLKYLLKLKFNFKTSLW

This assay has as its target T1, PARP (Rattus norvegicus, UniProt P27008).
T1 construct: Nucleus obtained by centrifugation was extracted with 0.4 M NaCl and the resulting soluble fraction was used as a source of PARP enzyme; from tissue; host or cells: Wistar rat forebrain, nuclear 0.4 M NaCl soluble fraction
Briefly: Measurement of PARP enzyme activity. The format is biochemical, Wistar rats. As to conditions: soluble nuclear fraction of Wistar rat forebrain as enzyme source; 250 µM NAD, 32P-NAD; 37°C for 30 minutes; 6 concentrations; read-out: PARP inhibitory activity IC50. The protocol: Test method: The forebrain was collected from Wistar rats and homogenized. Nucleus obtained by centrifugation was extracted with 0.4 M NaCl and the resulting soluble fraction was used as a source of PARP enzyme source. […] Incubation was carried out at 37°C for 30 minutes, and then the reaction was stopped with 20%trichloroacetic acid. The acid-insoluble fraction produced above was adsorbed to a GF/B filter, and the filter was washed several times, and then radioactivity on the filter was measured by using a liquid scintillation counter. The PARP activity was measured by subtracting radioactivity as a blank value of a sample not added with the enzyme source. […]
With `O=c1[nH]cnc2c1CSCC2` [Example 3, 3,5,7,8-Tetrahydrothiopyrano[4,3-d]pyrimidin-4-one], the IC50 was determined as 1460 nM.
Next, `O=c1[nH]c(-c2ccccc2)nc2c1CSCC2` [Example 4, 2-Phenyl-3,5,7,8-tetrahydrothiopyrano[4,3-d]pyrimidin-4-one]: 410 nM; `C=C1CSCc2c1nc(C)[nH]c2=O` [Example 20, 2-Methyl-8-methylene-3,5,7,8-tetrahydrothiopyrano[4,3-d]pyrimidin-4-one]: 250 nM.
As for `C=C1CCCc2c1nc(C)[nH]c2=O` [Example 21(A), 2-Methyl-8-methylene-5,6,7,8-tetrahydro-3H-quinazolin-4-one], the IC50 amounted to 350 nM.
Under `COCC=C1CSCc2c1nc(C)[nH]c2=O` [Example 39, 8-(2-Methoxyethylidene)-2-methyl-3,5,7,8-tetrahydrothiopyrano-[4,3-d]pyrimidin-4-one] stands 440 nM.

The IC50 is the point on the concentration scale where inhibition reaches its midpoint.
